In patent publication US20060069132A1, “Azolecarboxamide herbicides” (priority 2004, published 2006):

Experiments:
Assay in all cases: Test E pre-/postemergence herbicide test
[1] = test system: large crabgrass; format: in vivo, Digitaria sanguinalis
Source text: (§1) Seeds of plant species selected from bipinnate beggarticks (Bidens bipinnata L.), hairy beggarticks (Bidens radiata Thuill.), bermudagrass (Cynodon dactylon (L.) Pers.), Surinam grass (Urochloa decumbens (Staph) R. D. Webster, previously named Brachiaria decumbens Stapf), large crabgrass (Digitaria sanguinalis (L.) Scop.), green foxtail (Setaria viridis (L.) P. Beauv.), goosegrass (Eleusine indica (L.) Gaertn.), johnsongrass (Sorghum halepense (L.) Pers.), kochia (Kochia scoparia (L.) Schrad.), pitted morningglory (Ipomoea lacunosa L.), purple nutsedge (Cyperus rotundus L.), common ragweed (Ambrosia elatior L.), mustard (Brassica nigra (L.) W. D. J. Koch), guineagrass (Panicum maximum Jacq.), dallisgrass (Paspalum dilatatum Poir.), barnyardgrass (Echinochloa crus-galli (L). P. Beauv.), southern sandbur (Cenchrus echinatus L.), common sowthistle (Sonchus oleraceous L.), prickly sida (Sida spinosa L.), Italian ryegrass (Lolium multiflorum Lam.), common purslane (Portulaca oleracea L.), broadleaf signalgrass (Brachiaria platyphylla (Griseb.) Nash), common groundsel (Senecio vulgaris L.), common chickweed (Stellaria media (L.) Vill/Cyr.), tropical spiderwort (Commelina benghalensis L.), annual bluegrass (Poa annua L.), downy bromegrass (Bromus tectorum L.), itchgrass (Rottboellia cochinchinensis (L.) L.f.), quackgrass (Elytrigia repens (L.) Nevski), Canada horseweed (Erigeron Canadensis L.), field bindweed (Convolvulus arvensis L.), spotted spurge (Euphorbia maculata L.), common mallow (Malva sylvestris (=s silvestris) L.), and Russian thistle (Salsola kali L. ssp. Ruthenica (Iljin) Soo) were planted and treated preemergence with test chemicals formulated in a non-phytotoxic solvent mixture which included a surfactant.
(§2) At the same time, plants selected from these weed species were treated with postemergence applications of some of the test chemicals formulated in the same manner. Plants ranged in height from 2 to 18 cm (1- to 4-leaf stage) for postemergence treatments. Treated plants and controls were maintained in a greenhouse for 12 to 14 days, after which time all species were compared to controls and visually evaluated. Plant response ratings, summarized in Table E, are based on a scale of 0 to 100 where 0 is no effect and 100 is complete control. A dash (-) response means no test result.

[2] = test system: green foxtail; format: in vivo, Setaria viridis
Source text: as §1, §2

[3] = test system: goosegrass; format: in vivo, Eleusine indica
Source text: as §1, §2

[4] = test system: pitted morningglory; format: in vivo, Ipomoea lacunosa
Source text: as §1, §2

[5] = test system: mustard; format: in vivo, Brassica nigra
Source text: as §1, §2

[6] = test system: dallisgrass; format: in vivo, Paspalum dilatatum
Source text: as §1, §2

[7] = test system: barnyardgrass; format: in vivo, Echinochloa crus-galli
Source text: as §1, §2

[8] = test system: southern sandbur; format: in vivo, Cenchrus echinatus
Source text: as §1, §2

[9] = test system: common sowthistle; format: in vivo, Sonchus oleraceous
Source text: as §1, §2

[10] = test system: Italian ryegrass; format: in vivo, Lolium multiflorum
Source text: as §1, §2

[11] = test system: common purslane; format: in vivo, Portulaca oleracea; details: Preemergence
Source text: as §1, §2

[12] = test system: tropical spiderwort; format: in vivo, Commelina benghalensis
Source text: as §1, §2

[13] = test system: annual bluegrass; format: in vivo, Poa annua
Source text: as §1, §2

[14] = test system: downy bromegrass; format: in vivo, Bromus tectorum
Source text: as §1, §2

[15] = test system: common mallow; format: in vivo, Malva sylvestris
Source text: as §1, §2

[16] = Postemergence, 500 g ai/ha, scale 0 to 100
[17] = Postemergence, 250 g ai/ha, scale 0 to 100
[18] = Preemergence, 62 g ai/ha, scale 0 to 100
[19] = Preemergence, 125 g ai/ha, scale 0 to 100
[20] = Preemergence, 250 g ai/ha, scale 0 (no effect) to 100 (complete control)
[21] = Preemergence, 500 g ai/ha, scale 0 (no effect) to 100 (complete control)
[22] = postemergence, 125 g ai/ha, scale 0 to 100

## CCNC(=O)c1ccnc(NC(=O)c2cc(C(C)(C)C)nn2CC)c1 [Compound 152]
[1]; [16]
  Plant response rating, Crabgrass, Large: 80
[1]; [17]
  Plant response rating, Crabgrass, Large: 75
[1]; [18]
  Plant response rating, Crabgrass, Large: 40
[1]; [19]
  Plant response rating, Crabgrass, Large: 70
[1]; [20]
  Plant response rating, Crabgrass, Large: 100
[1]; [21]
  Plant response rating, Crabgrass, Large: 100
[1]; [22]
  Plant response rating, Crabgrass, Large: 60
[2]; [16]
  Plant response rating, Foxtail, Green: 85
[2]; [17]
  Plant response rating, Foxtail, Green: 85
[2]; [18]
  Plant response rating, Foxtail, Green: 20
[2]; [19]
  Plant response rating, Foxtail, Green: 70
[2]; [20]
  Plant response rating, Foxtail, Green: 85
[2]; [21]
  Plant response rating, Foxtail, Green: 100
[2]; [22]
  Plant response rating, Foxtail, Green: 40
[3]; [16]
  Plant response rating, Goosegrass: 75
[3]; [17]
  Plant response rating, Goosegrass: 60
[3]; [18]
  Plant response rating, Goosegrass: 30
[3]; [19]
  Plant response rating, Goosegrass: 70
[3]; [20]
  Plant response rating, Goosegrass: 80
[3]; [21]
  Plant response rating, Goosegrass: 90
[3]; [22]
  Plant response rating, Goosegrass: 50
[4]; [16]
  Plant response rating, Morningglory: 30
[4]; [17]
  Plant response rating, Morningglory: 20
[4]; [18]
  Plant response rating, Morningglory: 10
[4]; [19]
  Plant response rating, Morningglory: 10
[4]; [20]
  Plant response rating, Morningglory: 40
[4]; [21]
  Plant response rating, Morningglory: 40
[4]; [22]
  Plant response rating, Morningglory: 10
[5]; [16]
  Plant response rating, Black Mustard: 100
[5]; [17]
  Plant response rating, Black Mustard: 100
[5]; [18]
  Plant response rating, Black Mustard: 90
[5]; [19]
  Plant response rating, Black Mustard: 90
[5]; [20]
  Plant response rating, Black Mustard: 95
[5]; [21]
  Plant response rating, Black Mustard: 100
[6]; [16]
  Plant response rating, Dallisgrass: 75
[6]; [17]
  Plant response rating, Dallisgrass: 75
[6]; [18]
  Plant response rating, Dallisgrass: 50
[6]; [19]
  Plant response rating, Dallisgrass: 80
[6]; [20]
  Plant response rating, Dallisgrass: 85
[6]; [21]
  Plant response rating, Dallisgrass: 95
[6]; [22]
  Plant response rating, Dallisgrass: 30
[7]; [16]
  Plant response rating, Barnyardgrass: 75
[7]; [17]
  Plant response rating, Barnyardgrass: 75
[7]; [18]
  Plant response rating, Barnyardgrass: 60
[7]; [19]
  Plant response rating, Barnyardgrass: 75
[7]; [20]
  Plant response rating, Barnyardgrass: 85
[7]; [21]
  Plant response rating, Barnyardgrass: 90
[7]; [22]
  Plant response rating, Barnyardgrass: 50
[8]; [16]
  Plant response rating, Sandbur: 100
[8]; [17]
  Plant response rating, Sandbur: 40
[8]; [18]
  Plant response rating, Sandbur: 10
[8]; [19]
  Plant response rating, Sandbur: 30
[8]; [20]
  Plant response rating, Sandbur: 70
[8]; [21]
  Plant response rating, Sandbur: 80
[8]; [22]
  Plant response rating, Sandbur: 20
[9]; [16]
  Plant response rating, Sowthistle: 100
[9]; [17]
  Plant response rating, Sowthistle: 90
[9]; [18]
  Plant response rating, Sowthistle: 80
[9]; [19]
  Plant response rating, Sowthistle: 80
[9]; [20]
  Plant response rating, Sowthistle: 95
[9]; [21]
  Plant response rating, Sowthistle: 95
[10]; [16]
  Plant response rating, Ryegrass, Italian: 90
[10]; [17]
  Plant response rating, Ryegrass, Italian: 90
[10]; [18]
  Plant response rating, Ryegrass, Italian: 20
[10]; [19]
  Plant response rating, Ryegrass, Italian: 50
[10]; [20]
  Plant response rating, Ryegrass, Italian: 80
[10]; [21]
  Plant response rating, Ryegrass, Italian: 95
[10]; [22]
  Plant response rating, Ryegrass, Italian: 90
[11]; 62 g ai/ha, scale 0 to 100
  Plant response rating, Purslane: 0
[11]; 125 g ai/ha, scale 0 to 100
  Plant response rating, Purslane: 0
[11]; 250 g ai/ha, scale 0 (no effect) to 100 (complete control)
  Plant response rating, Purslane: 50
[11]; 500 g ai/ha, scale 0 (no effect) to 100 (complete control)
  Plant response rating, Purslane: 100
[12]; [16]
  Plant response rating, Spiderwort: 80
[12]; [17]
  Plant response rating, Spiderwort: 10
[12]; [18]
  Plant response rating, Spiderwort: 10
[12]; [19]
  Plant response rating, Spiderwort: 20
[12]; [20]
  Plant response rating, Spiderwort: 75
[12]; [21]
  Plant response rating, Spiderwort: 80
[13]; [16]
  Plant response rating, Bluegrass: 85
[13]; [17]
  Plant response rating, Bluegrass: 85
[13]; [18]
  Plant response rating, Bluegrass: 60
[13]; [19]
  Plant response rating, Bluegrass: 80
[13]; [20]
  Plant response rating, Bluegrass: 95
[13]; [21]
  Plant response rating, Bluegrass: 95
[13]; [22]
  Plant response rating, Bluegrass: 60
[14]; [16]
  Plant response rating, Bromegrass, Downy: 80
[14]; [17]
  Plant response rating, Bromegrass, Downy: 75
[14]; [18]
  Plant response rating, Bromegrass, Downy: 0
[14]; [19]
  Plant response rating, Bromegrass, Downy: 30
[14]; [20]
  Plant response rating, Bromegrass, Downy: 60
[14]; [21]
  Plant response rating, Bromegrass, Downy: 90
[15]; [16]
  Plant response rating, Mallow: 50
[15]; [17]
  Plant response rating, Mallow: 50
[15]; [18]
  Plant response rating, Mallow: 40
[15]; [19]
  Plant response rating, Mallow: 80
[15]; [20]
  Plant response rating, Mallow: 90
[15]; [21]
  Plant response rating, Mallow: 90
